Test results from patent publication US7163946B2 (Ligand Pharmaceuticals Incorporated, priority 2002, dated 2007).

What was measured:
hPR [1] = target: T1, hPR (Homo sapiens, UniProt P06401); test: T47D alkaline phosphatase assay, antagonist mode; assay type: cell-based; conditions: T47D human breast cancer cells; for Emax: read-out: hPR Antagonists T47D Cells Eff. (%); for IC50: read-out: hPR Antagonists T47D Cells IC50
T1 sequence (P06401 679-933 limits assumed): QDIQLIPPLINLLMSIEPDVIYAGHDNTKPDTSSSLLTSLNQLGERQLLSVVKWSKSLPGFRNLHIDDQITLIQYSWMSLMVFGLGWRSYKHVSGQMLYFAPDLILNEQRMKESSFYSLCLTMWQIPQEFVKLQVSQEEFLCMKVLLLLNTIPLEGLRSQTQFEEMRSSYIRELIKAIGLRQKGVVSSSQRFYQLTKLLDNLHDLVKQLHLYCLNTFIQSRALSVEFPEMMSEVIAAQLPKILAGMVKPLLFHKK

hPR [2] = target: T2, hPR (Homo sapiens, UniProt P06401); test: hPR cotransfection assay in CV-1 cells, agonist mode; assay type: cell-based; conditions: for Emax: CV-1, CV-1 cells, read-out: hPR Agonist CV-1 Cells Eff. (%); for Emax / hPR Agonist CV-1 Cells Eff. (%): relative to maximal response of progesterone as 100%
T2 sequence (P06401 1-933): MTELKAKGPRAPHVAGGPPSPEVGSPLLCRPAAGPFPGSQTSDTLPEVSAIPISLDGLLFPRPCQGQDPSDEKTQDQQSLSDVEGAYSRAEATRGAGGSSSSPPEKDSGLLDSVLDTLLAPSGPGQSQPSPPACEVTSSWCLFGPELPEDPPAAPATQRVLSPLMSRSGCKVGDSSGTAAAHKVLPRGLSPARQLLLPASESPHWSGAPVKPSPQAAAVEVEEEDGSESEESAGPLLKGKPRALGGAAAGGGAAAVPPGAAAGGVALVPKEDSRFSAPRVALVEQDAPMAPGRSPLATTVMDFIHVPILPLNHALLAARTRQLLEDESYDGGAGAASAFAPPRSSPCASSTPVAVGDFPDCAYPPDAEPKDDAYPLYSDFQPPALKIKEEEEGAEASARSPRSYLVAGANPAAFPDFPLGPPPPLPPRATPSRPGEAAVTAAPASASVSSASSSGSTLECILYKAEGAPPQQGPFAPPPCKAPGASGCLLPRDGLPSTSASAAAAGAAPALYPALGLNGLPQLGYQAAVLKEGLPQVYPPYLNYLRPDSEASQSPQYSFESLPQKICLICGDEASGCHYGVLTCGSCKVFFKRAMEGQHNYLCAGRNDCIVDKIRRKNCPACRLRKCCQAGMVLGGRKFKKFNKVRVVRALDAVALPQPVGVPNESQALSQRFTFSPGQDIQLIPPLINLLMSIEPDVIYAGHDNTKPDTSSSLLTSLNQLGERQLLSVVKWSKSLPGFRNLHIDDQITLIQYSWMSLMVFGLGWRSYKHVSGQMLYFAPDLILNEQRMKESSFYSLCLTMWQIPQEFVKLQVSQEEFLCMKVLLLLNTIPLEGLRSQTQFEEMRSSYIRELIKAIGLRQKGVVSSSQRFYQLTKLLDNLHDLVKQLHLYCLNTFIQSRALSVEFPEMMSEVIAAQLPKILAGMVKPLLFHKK

hPR-A = target: T3, hPR-A (Homo sapiens, UniProt P06401); test: Receptor competitive binding assay; conditions: read-out: PR binding Ki
T3 sequence (P06401 1-769 isoform P06401-2): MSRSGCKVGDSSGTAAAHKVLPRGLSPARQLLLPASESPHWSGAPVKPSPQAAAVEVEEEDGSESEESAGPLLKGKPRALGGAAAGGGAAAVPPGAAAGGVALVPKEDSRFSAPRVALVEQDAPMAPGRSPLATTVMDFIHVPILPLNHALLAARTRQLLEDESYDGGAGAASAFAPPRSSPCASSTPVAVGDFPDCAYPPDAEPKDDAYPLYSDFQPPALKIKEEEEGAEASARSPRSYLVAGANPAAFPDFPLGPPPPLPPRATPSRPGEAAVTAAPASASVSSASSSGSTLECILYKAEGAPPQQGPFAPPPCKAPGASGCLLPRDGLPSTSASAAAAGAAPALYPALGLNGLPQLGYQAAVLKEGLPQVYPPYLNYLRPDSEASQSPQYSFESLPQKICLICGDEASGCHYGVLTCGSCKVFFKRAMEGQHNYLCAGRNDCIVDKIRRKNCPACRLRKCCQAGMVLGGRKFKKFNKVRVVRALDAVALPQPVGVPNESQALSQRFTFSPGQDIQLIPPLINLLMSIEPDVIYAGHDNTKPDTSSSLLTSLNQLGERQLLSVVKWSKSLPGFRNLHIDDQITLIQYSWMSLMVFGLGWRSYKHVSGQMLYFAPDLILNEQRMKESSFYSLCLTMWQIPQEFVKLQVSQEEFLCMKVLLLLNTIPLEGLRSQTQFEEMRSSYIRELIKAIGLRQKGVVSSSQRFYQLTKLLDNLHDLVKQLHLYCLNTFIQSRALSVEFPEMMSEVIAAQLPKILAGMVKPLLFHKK

hPR [3] = target: T1, hPR; test: T47D alkaline phosphatase assay, agonist mode; assay type: cell-based; conditions: T47D human breast cancer cells; for Emax: T47D, read-out: hPR Agonist T47D cells Eff. (%)
hPR [4] = target: T2, hPR; test: hPR cotransfection assay in CV-1 cells, antagonist mode; assay type: cell-based; conditions: for Emax: CV-1, CV-1 cells, read-out: hPR Antagonist CV-1 Cells Eff. (%); for Emax / hPR Antagonist CV-1 Cells Eff. (%): maximal inhibition of reference agonist at EC50 concentration; for IC50 / hPR Antagonist CV-1 Cells Eff. (%): CV-1 cells
immature rabbits = test: McPhail (Clauberg) rabbit assay of progestational activity; assay type: in vivo; conditions: Oryctolagus cuniculus; estradiol-primed immature rabbits; glandular changes of the uterus; read-out: potency (MAD in mg/kg), minimum active dose
Description: The superiority of the 7,9-difluoro analogue compounds of the present invention was further characterized utilizing the McPhail rabbit model according to the following illustrative Examples. The Clauberg or McPhail assay is a classic assay utilizing rabbits to measure progestational activity. […] In this assay, immature rabbits are treated initially with estradiol, which induces growth in the uterus. This is followed by a progestin, which causes a large change in the glandular content of the uterus. It is this change in the glandular component which is a measure of the progestational activity of a progestin. The measurement of these glandular changes is carried out histologically using stained sections of the uterus. The in vivo comparison between the new 7,9-difluoro compounds and analogues with substitution patterns different from 7,9-difluoro (U.S. Pat. Nos. 5,693,646 and 5,696,127) is tabulated in Tables 7 and 8. The in vivo potency of the progestins is presented as the minimum active dose (MAD).

[5] = tested on: ovariectomized female rats; test: Multi-endpoint adult rat model, uterus/breast tissue-selectivity; assay type: in vivo; conditions: ratio of relative efficacy to MPA in uterus verse in breast tissue at the same highest dose tested; estrone-treated ovariectomized rats, three days
[6] = CV-1 cells, read-out: hPR Agonist CV-1 Cells EC50
[7] = Tables 3 and 4, values without footnote, read-out: hPR agonist potencies (EC50 in nM) in the cotransfection assay

SMILES	IC50 (hPR [1])	EC50 (hPR [2]; [6])	EC50 (hPR [3])	IC50 (hPR [4])	minimal effective dose (immature rabbits)	uterus/breast tissue-selectivity [5]	also measured
CC#CC1Oc2c(F)cc(F)cc2-c2ccc3c(c21)C(C)=CC(C)(C)N3 (single isomer, unassigned; (-)) [Compound 75, (−)-7,9-difluoro-5-(1-propynyl)-1,2-dihydro-2,2,4-trimethyl-5H-chromeno[3,4-f]quinoline]	–	–	–	–	< 0.5 mg/kg	4.2	–
CC1=CC(C)(C)Nc2ccc3c(c21)C(c1ccc(Cl)cc1)Oc1ccccc1-3 (stereo not drawn) [Formula I X=H 4-Cl-Ph, reference compound]	–	–	–	–	–	1.5	–
C#C[C@]1(O)CC[C@H]2[C@@H]3CCC4=CC(=O)CC[C@@H]4[C@H]3C(=C)C[C@@]21CC [3-ketodesogestrel, reference compound]	> 10000 nM	0.1 nM	0.2 nM	> 10000 nM	–	–	hPR Antagonists T47D Cells Eff. (%) (hPR [1]): na (na = not active (i.e. efficacy of <20 and potency of >10,000)); hPR Agonist CV-1 Cells Eff. (%) (hPR [2]; CV-1 cells): 190%; Ki (hPR-A): 0.3 nM; hPR Agonist T47D cells Eff. (%) (hPR [3]): 94%; hPR Antagonist CV-1 Cells Eff. (%) (hPR [4]): na (na = not active (i.e. efficacy of <20 and potency of >10,000))
CC1=CC(C)(C)Nc2ccc3c(c21)C(CC(=O)c1ccccc1)Oc1c(F)cc(F)cc1-3 (racemic) [Compound 45, (±)-7,9-difluoro-5-(2-oxo-2-phenylethyl)-1,2-dihydro-2,2,4-trimethyl-5H-chromeno[3,4-f]quinoline]	> 10000 nM	> 10000 nM	195 nM	42 nM	–	–	Emax (hPR [1]): < 20%; Emax (hPR [2]): < 20%; Ki (hPR-A): 18 nM; Emax (hPR [3]): 77%; Emax (hPR [4]): 79%
CC1=CC(C)(C)Nc2ccc3c(c21)C(c1cc2ccccc2s1)Oc1c(F)cc(F)cc1-3 (single isomer, unassigned; (-)) [Compound 64, (−)-7,9-difluoro-5-(benzo[b]thien-2-yl)-1,2-dihydro-2,2,4-trimethyl-5H-chromeno[3,4-f]quinoline]	–	–	–	–	0.25 mg/kg	2.8	–
CC1=CC(C)(C)Nc2ccc3c(c21)/C(=C/c1ccccc1F)Oc1c(F)cc(F)cc1-3 [Compound 12, 7,9-difluoro-5(Z)-(2-fluorobenzylidene)-1,2-dihydro-2,2,4-trimethyl-5H-chromeno[3,4-f]quinoline]	–	–	–	–	0.5 mg/kg	–	EC50 (hPR [2]; [7]): 2.55 nM
CC1=CC(C)(C)Nc2ccc3c(c21)C(c1ccc(Cl)c(C)c1)Oc1ccc(F)cc1-3 (stereo not drawn) [Formula I X=9-F 4-Cl-3-Me-Ph, reference compound]	–	–	–	–	1 mg/kg	–	–
C#CCC1Oc2c(F)cc(F)cc2-c2ccc3c(c21)C(C)=CC(C)(C)N3 (racemic) [Compound 71, (±)-7,9-difluoro-5-(2-propynyl)-1,2-dihydro-2,2,4-trimethyl-5H-chromeno[3,4-f]quinoline]	–	–	–	–	< 0.5 mg/kg	–	–
CC1=CC(C)(C)Nc2ccc3c(c21)/C(=C/c1cccc(F)c1)Oc1ccc(F)cc1-3 [Formula II X=9-F 3-F-Ph, reference compound]	–	–	–	–	–	2.2	EC50 (hPR [2]; [7]): 7 nM
CC1=CC(C)(C)Nc2ccc3c(c21)C(c1cccc(C(F)(F)F)c1)Oc1ccccc1-3 (stereo not drawn) [Formula I X=H 3-CF3-Ph, reference compound]	–	–	–	–	–	3.5	–
CC#C[C@]1(O)CC[C@H]2[C@@H]3CCC4=CC(=O)CCC4=C3[C@@H](c3ccc(N(C)C)cc3)C[C@@]21C [RU486, mifepristone, reference compound]	–	–	–	–	–	–	hPR Antagonists T47D Cells Eff. (%) (hPR [1]): 94%; hPR Agonist CV-1 Cells Eff. (%) (hPR [2]; CV-1 cells): na (na = not active (i.e. efficacy of <20 and potency of >10,000)); hPR Agonist T47D cells Eff. (%) (hPR [3]): na (na = not active (i.e. efficacy of <20 and potency of >10,000)); hPR Antagonist CV-1 Cells Eff. (%) (hPR [4]): 94%

More lines, main results first:

IC50 (hPR [1])	EC50 (hPR [2]; [6])	EC50 (hPR [3])	IC50 (hPR [4])	SMILES	minimal effective dose (immature rabbits)	uterus/breast tissue-selectivity [5]	also measured
250 nM	> 10000 nM	315 nM	75 nM	COC1Oc2c(F)cc(F)cc2-c2ccc3c(c21)C(C)=CC(C)(C)N3 (racemic) [Compound 32, (±)-7,9-difluoro-5-methoxy-1,2-dihydro-2,2,4-trimethyl-5H-chromeno[3,4-f]quinoline]	–	–	Emax (hPR [1]): 35%; Emax (hPR [2]): < 20%; Ki (hPR-A): 37 nM; Emax (hPR [3]): 36%; Emax (hPR [4]): 76%
4100 nM	28 nM	> 10000 nM	24 nM	CC1=CC(C)(C)Nc2ccc3c(c21)C(c1ccc(Cl)c(C)c1)Oc1c(F)cc(F)cc1-3 (single isomer, unassigned; (+)) [Compound 39, (+)-7,9-difluoro-5-(4-chloro-3-methylphenyl)-1,2-dihydro-2,2,4-trimethyl-5H-chromeno[3,4-f]quinoline]	–	–	Emax (hPR [1]): 29%; hPR Agonist CV-1 Cells Eff. (%) (hPR [2]; CV-1 cells): 26%; hPR Agonist T47D cells Eff. (%) (hPR [3]): na (na = not active (i.e. efficacy of <20 and potency of >10,000)); hPR Antagonist CV-1 Cells Eff. (%) (hPR [4]): 62%
830 nM	9.4 nM	79 nM	> 10000 nM	CC1=CC(C)(C)Nc2ccc3c(c21)/C(=C/C#N)Oc1c(F)cc(F)cc1-3 [Compound 24, 7,9-difluoro-5(Z)-cyanomethylidene-1,2-dihydro-2,2,4-trimethyl-5H-chromeno[3,4-f]quinoline]	–	–	Emax (hPR [1]): 26%; Emax (hPR [2]): 52%; Ki (hPR-A): 58 nM; Emax (hPR [3]): 72%; Emax (hPR [4]): < 20%
